Data taken from US20220098197A1, “SALTS OF HETEROCYCLIC COMPOUND AND USE THEREOF” (priority 2019, published 2022).

Legend:
RAW264.7 macrophages = test: RT-PCR analysis, LPS- or PGD2-stimulated RAW264.7; assay type: cell-based, mouse; conditions: CT-NA 10 and 100 μM, P<0.05 or P<0.01
Method: For ELISA and RT-PCR, RAW 264.7 macrophages were acclimated to two 12-well plates at 70-80% confluence. Thereafter, the medium in the 12-well plate was replaced with serum-free RPMI-1640 medium for 10-12 hrs and then exposed to CT-NA (10 and 100 μM) for 1 hour. One hour later, one 12-well plate was treated with LPS (100 ng/ml) for 24 hrs, and the other was treated with PGD2 (10 μM) for 24 hrs. After the treatment, the supernatant of the treated cells was collected to measure the protein levels of TNF-α, IL-1β, IL-6, and KC using ELISA kits according to the method of the instructions. Subsequently, RNA samples from each treated plate were extracted and reverse-transcripted into cDNA with HiScript5xQRTSuperMix, and then subjected to RT-PCR using BioRad CFX96 Touch™ real-time PCR detection system (San Diego, Calif.). Similarly, total RNAs extracted from treated isolated peritoneal macrophages were subjected to analyze the mRNA levels of IL-10, TNF-α, IL-6 and KC. The primers used in the RT-PCR reaction were shown in Table 2. β-actin was used as an internal control. The RT-PCR reactions were triplicated and the relative expression of target mRNA was normalized by the respective β-actin.

neutrophils = test: PGD2-induced neutrophils migration in vitro, Boyden chamber (Example 2); assay type: cell-based, mice; conditions: pretreatment CT-NA 1 μM or 10 μM, OC459 10 μM; 4 hrs; P<0.01
Method: The method for isolating neutrophils and testing effect of CT-NA on neutrophils migration was briefly described as follows. 1.5% glycogen was injected intragastrically into mice at a dose of 20 ml/kg body weight. 4 hrs later, the mice were euthanized to isolate neutrophils from the peritoneal lavage. Effect of CT-NA on the migration of neutrophils was detected using the Boyden chamber assay kit (3 um pore size, Billerica, Mass.). PGD2 was used as a chemoattractant because the activated PGD2/CRTH2 receptors promoted the neutrophils migration. Firstly, the isolated neutrophils were inoculated at 4×10^5 cells/ml into the upper side of well of the Boyden chamber, and the lower chamber contained different concentrations of PGD2 (0.1, 1 and 10 μM), and the neutrophils were allowed to migrate towards PGD2 for 4 hrs at 37° C. in order to find out the suitable PGD2 concentration. After evaluation of the suitable PGD2 concentration, the migration of neutrophils pretreated with CT-NA (1 and 10 μM) and OC459 (10 μM), another effective CRTH2 inhibitor, toward PGD2 (1 μM) was assessed for 4 hrs.

CS-induced ALI mice = test: CS-induced lung injury model: albumin assay in BALF; assay type: in vivo, Balb/c mice; conditions: CT-NA 10 and 30 mg/kg intragastric; CS exposure; p<0.01
Method: Model preparation: The mice were randomly divided into 5 groups (12 mice in each group), which were the control group (the mice were exposed to fresh air), the saline group (the mice were exposed to cigarette smoke), dexamethasone (Dex) group (1 mg/kg) (the mice were exposed to cigarette smoke), CT-NA 10 mg/kg group and CT-NA 30 mg/kg group (the mice were exposed to cigarette smoke). According to the grouping, the mice were intragastrically administered saline, Dex and CT-NA, respectively. Thereafter, the mice were exposed to fresh air or cigarette smoke generated from 3R4F research-grade cigarettes (containing about 600 mg TPM/m^3 and 29.9 mg nicotine/m^3) in a cuboid plastic box (65×50x×45 cm). Ten cigarettes were burned every day for seven days. After one cigarette was burned, the next cigarette was ignited. The daily body weight and general condition of the mice were checked. 24 hrs after the last exposure to the cigarette smoke, the partial pressure of oxygen (PO2) of all mice was measured by the Moor VMS-OXY™ measuring instrument, which was used to measure the oxygenated/deoxygenated hemoglobin concentration and oxygen saturation (percentage) in the microcirculation at the wavelength range of 500 to 650 nm. […] The albumin concentration ratio assessed from BALF represented not only the albumin level but also the permeability of the pulmonary microvascular.

## CN([C@@H]1CCc2c(CC(=O)[O-])c3cccnc3n2C1)S(=O)(=O)c1ccc(F)cc1.[Na+] [Sodium salt hydrate]
RAW264.7 macrophages; LPS, dose-dependent
  mRNA expressions of IL-1β, TNF-α, IL-6 and KC, LPS-stimulated: reduced
RAW264.7 macrophages; PGD2, dose-dependent
  mRNA expressions of IL-1β, TNF-α, IL-6 and KC, PGD2-stimulated: reduced
neutrophils
  neutrophils migration induced by 1 μM PGD2: significantly reduced
CS-induced ALI mice
  BALF albumin contents: remarkably reduced
